Earlier results as cited in patent publication US20070155664A1, “Parathyroid hormone (pth) containing pharmaceutical compositions for oral use” (Nycomed Danmark A/S, priority 2003, published 2007).

Legend:
postmenopausal women = settings: calcium supplementation
pre-menopausal women = settings: 1200 mg calcium supplements daily, three menstrual cycles; placebo 48%

[Ca+2] [calcium]
oral administered dose absorbed (oral): 20-33% | absorption efficiency (young adult, on average): about 30% | reduced bone loss, on average (postmenopausal women): about 1 % year | women with PMS related symptoms (pre-menopausal women): 30%
